What was measured:
OAT3 = target: T1, OAT3 (Homo sapiens, UniProt Q8TCC7); assay: uptake by MDCK II cells stably expressing OAT3; type: in vitro ADME; settings: pooled plasma of male EHBRs (79 µM compound 1), pH 5.5, 37 °C, 15 min
T1 construct: expressed in transfected cells
T1 sequence (Q8TCC7 1-542): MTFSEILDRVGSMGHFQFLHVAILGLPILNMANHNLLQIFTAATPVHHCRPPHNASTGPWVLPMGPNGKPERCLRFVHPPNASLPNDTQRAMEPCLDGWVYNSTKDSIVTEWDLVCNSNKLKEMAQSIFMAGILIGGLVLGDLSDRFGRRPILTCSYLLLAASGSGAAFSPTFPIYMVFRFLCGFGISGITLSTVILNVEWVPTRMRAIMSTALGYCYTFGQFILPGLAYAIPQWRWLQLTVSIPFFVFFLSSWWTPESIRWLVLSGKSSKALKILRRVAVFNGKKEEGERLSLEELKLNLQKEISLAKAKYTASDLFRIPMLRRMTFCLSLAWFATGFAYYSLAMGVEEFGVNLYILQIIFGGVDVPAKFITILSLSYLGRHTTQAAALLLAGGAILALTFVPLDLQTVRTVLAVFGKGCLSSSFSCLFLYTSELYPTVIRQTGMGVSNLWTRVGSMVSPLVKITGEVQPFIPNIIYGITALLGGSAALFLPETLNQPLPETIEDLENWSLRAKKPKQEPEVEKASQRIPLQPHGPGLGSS
Protocol: MDCKII cells were cultured in Dulbecco’s modified Eagle’s medium containing 10% FBS, 100 U/ml penicillin, and 100 µg/ml streptomycin at 37 °C in 5% CO2. Plasmids carrying the cDNAs encoding human organic anion transporter (OAT) 1 and 3 were prepared using the pCI-neo mammalian expression vector, as described previously. Using the plasmids, MDCKII cells stably expressing OAT1 and 3 were prepared as described previously, and tested for their functional expressions by evaluating the transports of [^3H]p-aminohippurate and [^3H]estrone sulfate, respectively, as probe substrates.
For the transport assay, the cells were seeded in 24-well plates (1 × 10^5 cells/well), and incubated for 24 h. The cells were pre-incubated for 15 min at 37 °C with 0.25 ml of the incubation medium described above. Two ml of pooled female or male EHBR plasma samples was lyophilized, and dissolved in 2 ml of 10 mM MES (pH 5.5). The cells were then incubated further at 37 °C for 15 min with 0.1 ml of pooled female or male EHBR plasma samples. The surface of the cells was washed 3 times with 0.5 ml of ice-cold PBS, and then the contents were extracted with 0.2 ml of ethanol. The cell residues were dissolved by 0.1 ml of 1 M NaOH, and after neutralization by adding 0.1 ml of 1 M HCl, the concentrations of protein were measured as mentioned above.

[1] = pharmacokinetics in SD rats orally treated with GA (200 mg/kg), LC-MS/MS; type: in vivo, Sprague Dawley (SD) rats; settings: female SD rats, GA 200 mg/kg oral, over 12 h
Protocol: (§1) Female SD rats or EHBRs (9-week-old) were anesthetized by an intraperitoneal (i.p.) injection of urethane (1 g/kg) and their jugular veins were exposed. […] Aliquots (10 µl) of plasma or urine were mixed with 20 µl of subtilisin (0.91 U/ml), incubated at 37 °C for 30 min, followed by the addition of 70 µl of astragalloside IV solution (1 µg/ml in ethanol containing 0.5% formic acid), and kept at −20 °C for 30 min.

[2] = pharmacokinetics in EHBRs orally treated with GA (200 mg/kg), LC-MS/MS; type: in vivo, Eisai Hyperbilirubinemia rats (EHBRs)
Protocol: as §1

[3] = concentrations in pooled plasma of EHBRs 12 h after oral GA (200 mg/kg); type: in vivo; settings: Eisai Hyperbilirubinemia rats (EHBR), rat
Protocol: Three female and three male EHBRs (9-week-old, respectively) were injected with urethane (1 g/kg, i.p.), and orally treated with an aqueous GA aqueous suspension (200 mg/kg in 1% CMC). Twelve h after the treatment, blood was collected from the abdominal vena cava, and the plasma samples of each sex rat were pooled.
(§2) LC-ESI(+)MS/MS analysis was conducted at the following conditions: column, Scherzo SM-C18 (3 μm, 3 mm i.d. ×100 mm, Imtakt, Kyoto, Japan); mobile phase, (A) 5 mM AcNH4, (B) 125 mM AcNH4/acetonitrole 1:4, at a flow rate of 0.3 ml/min, with the following gradient profile: A:B = 50:50–0:100 (0–3 min) and 0:100 (3–10 min); compound 1 (5.8 min), astragaloside IV (3.0 min), GA (8.7 min); the transitions monitored were the same as described in the previous section. Linear regressions over the concentration range 0.08–2 µM for compound 1 and 3.2 nM–2 µM for GA were examined using the peak-area ratio of the compounds to their internal standards and the least-squares method (r^2 > 0.98).

rat kidney slices = assay: uptake by rat kidney slices; type: in vitro ADME; settings: pooled plasma of female EHBRs, pH 5.5, 2 h
Protocol: Female SD rats (9-week-old) were treated with urethane (1 g/kg, i.p.), and their kidneys were collected. After removal of the capsule, the kidneys were sliced at approximately 0.5-mm thickness in the frontal section of the organ, using a tissue slicer (Natsume Seisakusyo, Tokyo, Japan) and then cut at the renal hilus into two halves. The slices were pre-incubated at either 4 or 37 °C for 15 min in 24-well plates with 0.3 ml of the incubation medium (137 mM NaCl, 5.4 mM KCl, 0.95 mM CaCl2, 0.81 mM MgSO4, 0.44 mM KH2PO4, 0.25 mM Na2HPO4, 5.5 mM glucose, 10 mM MES, adjusted to pH 5.5). Five ml of pooled female EHBR plasma samples was lyophilized, and dissolved in 5 ml of the incubation medium. […] After washing with PBS three times, the kidney slices were homogenated in PBS using sonication, and the concentrations of protein were measured as mentioned above. […]
as §2, with “Linear regressions over the concentration range 0.08–2 µM for compound 1 and 3.2 nM–2 µM for GA were examined using the peak-area ratio of the compounds to their internal standards and the least-squares method (r^2 > 0.98).” left out

CC1(C(=O)OC2OC(C(=O)O)C(O)C(O)C2O)CC(O)C2(C)CCC3(C)C(=CC(=O)C4C5(C)CCC(OS(=O)(=O)O)C(C)(C)C5CCC43C)C2C1 (stereo not drawn) [Compound 1, 22α-hydroxy-18β-glycyrrhetyl-3-O-sulfate-30-glucuronide]
uptake by cells expressing OAT3 compared with mock cells (OAT3): higher than that by mock cells | detection in plasma of SD rats [1]: not detected | urinary elimination in SD rats [1]: not detected | plasma concentration, times higher than that of 3MGA ([2]; EHBRs orally treated with GA): about 10 times | concentration at 12 h ([2]; Eisai Hyperbilirubinemia rats (EHBR), rat, plasma, female EHBRs, GA 200 mg/kg oral, 12 h, read-out: plasma concentration 12 h after GA treatment): 5.3 µM | urinary elimination in EHBRs ([2]; female EHBRs, GA 200 mg/kg oral, over 12 h): eliminated via urine | concentration at 12 h ([3]; female, read-out: concentration in pooled plasma, female EHBRs): 15 µM | concentration at 12 h ([3]; male, read-out: concentration in pooled plasma, male EHBRs): 79 µM | uptake by kidney slices at 37 °C compared with 4 °C (rat kidney slices): significantly higher

Source: paper PMC6197257 (Scientific Reports, 2018)
